In patent US5468772A, “Tripterinin compound and method” (Pharmagenesis, Inc., priority 1993, dated 1995):

Columns and labels:
IL-1b = IL-1b production by PHA stimulated human PBLs (ELISA); format: cell-based; settings: 0.7 and 3.13 μg/ml tripterinin, 24 h
Description: (§1) The effect of tripterinin on the production of the cytokines IL-1b, IL2, IL-6, IFNγ, and TNFα was assessed by measurement of the concentration of these cytokines in PHA stimulated human PBL cultures. Cytokine levels were measured by standard ELISA methods using commercially available kits, as detailed in Example 6. Briefly, assay buffer was added to each of the wells of a microtiter plate containing pre-bound anti-cytokine antibody, followed by addition of standard or sample solution, diluted appropriately for the cytokine concentration measured, followed by a second reporter-labeled antibody specific against the anti-cytokine antibody. […]
(§2) Cytokine measurements were carried out using commercially available ELISA assay kits (R&D Systems), in accordance with the supplier's protocols. In brief, 100 μl of the assay buffer supplied was added to each of the wells of a microtiter plate containing pre-bound anti-cytokine antibody, followed by 100 μl of standard or sample solution, diluted appropriately for the concentration range measured. […]
(§3) Following two hours incubation, the plates were washed four times with assay buffer, and the second antibody, anti-anti-cytokine-horseradish peroxidase (HRP), was added to each well in a volume of 200 μl. […] Optical density was determined using a Molecular Devices microtiter plate reader.

human PBLs = assay: Cytotoxicity, MTT reduction, human PBLs; format: cell-based; settings: up to 10 μg/ml, highest tested, 24 h
Description: (§4) Potential cytotoxicity of tripterinin was assessed by measurement of the effect of the compound on reduction of MTT (3-[4,5-Dimethylthiazol-2-yl]-2,5-diphenyltetrazolium bromide) by cultured cells, an index of cellular respiration and a sensitive assay for the detection of cytotoxicity (Green, et al.). Toxicity was evaluated in vitro in human PBLs and in mouse thymocytes, as detailed in Example 7. Sodium azide was used as a cytotoxic control. Cytotoxicity was also assessed using the standard method of trypan blue dye staining.
(§5) Potential cytotoxicity of tripterinin was assessed by measurement of the compound's effect on the reduction of MTT (3-[4,5-Dimethylthiazol-2-yl]-2,5-diphenyltetrazolium bromide) by cultured cells. MTT, a yellow-colored compound, is reduced by mitochondrial enzymes to form a purple crystalline reduction product (formazan), providing an index of cellular respiration as well as a sensitive assay for cytotoxicity (Green, et al.).
(§6) Cytotoxicity was assessed in cultured human PBLs and mouse thymocytes. […] (to solubilize the formazan crystals, the MTT reduction product), optical density was determined at 570-650 nm in a Molecular Devices microtiter plate reader. Data are expressed as the ratio of the optical density of the tripterinin treated sample to that of untreated controls. […]

IL-6 = IL-6 production by PHA stimulated human PBLs (ELISA); format: cell-based; settings: 24 h
Description: as §1, §2, §3

[1] = Solubility of crystalline tripterinin in organic solvents; format: physicochemical; settings: methylene chloride or acetone
mouse thymocytes = assay: Cytotoxicity, MTT reduction, mouse thymocytes; format: cell-based; settings: up to 10 μg/ml, highest tested, 24 h
Description: as §4, §5, §6

## C[C@]12CCC[C@]3(COC1=O)[C@@H]2CC[C@@]12C[C@@H](CC[C@]13O)[C@](C)(O)C2 [tripterinin]
IL-1b
  effect on IL-1B production: did not significantly affect
Human PBLs
  cytotoxicity (MTT reduction): No significant toxicity
Human PBLs; listed as Tripterinin
  cytotoxicity (MTT reduction): no significant toxicity
IL-6; 0.7 μg/ml tripterinin
  decrease in IL-6 production: 83%
IL-6; 3.13 μg/ml tripterinin
  decrease in IL-6 production: 99%
[1]
  dissolution of crystalline compound: dissolved easily
Mouse thymocytes
  cytotoxicity (MTT reduction): No significant toxicity
Mouse thymocytes; listed as Tripterinin
  cytotoxicity (MTT reduction): no significant toxicity
